pIC50: −log10 of the molar value.
Key:
RAW264.7 macrophages [1] = test: Confocal fluorescence microscopy, intracellular localization of inclusions; format: cell-based; settings: 5 × 10^−6 M, 72 h, live cells
Method: (§1) Confocal Fluorescent Microscopy: A Nikon A1 confocal microscope was used for further investigation of live cells incubated with chiral pairs of compounds (T and U) and the parent compound, P. Since crystals or vesicular forms containing chemicals inside the cells incubated with Compound P, T, or U were fluorescent when viewed with the TRITC filter sets, intracellular distribution of these compounds in RAW264.7 or MDCK cells were visualized using a Nikon A1 confocal microscopy (Nikon Instruments Inc., Melville, NY) equipped with diode‐based lasers and a Nikon Apo 60×/1.4 NA oil immersion lens. Briefly, RAW264.7 macrophages or MDCK epithelial cells were seeded in the 8‐well Nunc Lab‐Tek II chambered (#1.5) cover glasses (Thermo Scientific, Pittsburgh, PA) at a density of 8 × 10^3 cells cm^−2 (RAW264.7 cells) or 1.5 × 10^4 cells cm^−2 (MDCK cells) and allowed to adhere overnight (37 °C, 5% CO2). Then, 5 × 10^−6 M of Compound “P” or the related isomers, “T” or “U” in DMEM with 5% FBS (300 μL) was added to the cells and the cells were incubated for 72 h (37 °C, 5% CO2). For live cell imaging, after the removal of media, cells were washed with HBSS buffer twice. Hoechst 33342 (Invitrogen, Carlsbad, CA) was used for staining cell nuclei and FM 1‐43 (Molecular Probes T35356, Invitrogen) for the plasma membrane. Cells were incubated with 300 μL of 1:1 (v/v) dye mixtures of 5 μg mL^−1 Hoechst 33342 and 7 × 10^−6 M FM 1‐43 in HBSS for 15 min at room temperature. Without fixative, the confocal imaging of the live cells was performed using lasers for DAPI (excitation/emission wavelength: 405 nm/450 ± 25 nm), FITC (488 nm/525 ± 25 nm), and TRITC (561 nm/596 ± 25 nm) channels. Z‐stack images of the cells were captured along the Z‐axis (interval, 1 μm) in three fluorescence channels and analyzed by using the Nikon NIS‐Elements 3.2 confocal software (Nikon Instruments Inc., Melville, NY). […]

MDCK epithelial cells [2] = test: as above; format: cell-based, Canine; settings: 5 × 10^−6 M, 72 h, live cells
Method: as §1

RAW264.7 macrophages [3] = test: Cell accumulation experiment, transmitted light microscopy of cellular staining pattern; format: cell-based; settings: for Inferred uptake: inferred from staining pattern after 72 hour incubation; for Observed cellular staining pattern (Notes): live cells, 72 hour incubation, 5 × 10^−6 M (2.5 × 10^−6 M for I); for Staining in fixed cells: methanol-fixed cells incubated 72 h with compound (control); for Cellular staining relative to clofazimine: live macrophages, 72 h
Method: Cell Accumulation Experiments and Transmitted Light Microscopic Examination: […] After a 24 h incubation (37 °C, 5% CO2), cells were incubated with solution of clofazmine or its chemical derivatives (300 μL of 5 × 10^−6 m concentration; measured cell viability ranging from 85% to 97% for all compounds tested at this concentration; Figure 1) in DMEM (no phenol red; plus 1 × 10^−3 M sodium pyruvate and 5% FBS). For Compound “I,” 2.5 × 10^−6 M of compound solution in media was used for the RAW 264.7 macrophages incubation because of lower cell viability at higher concentrations (IC50 = (3.95 ± 0.11) × 10^−6 M). A solution of clofazmine or other chemical derivatives was made by a diluting stock solutions (2.5 × 10^−3 M in DMSO; 10 × 10^−3 M stock in DMSO were stored at −80 °C for further use) into DMEM with 5% FBS. […] The extracellular concentration of each compound in each well was maintained by daily replacement of the compound‐containing media. After 72 h of incubation with clofazmine or its derivatives, compound‐containing media were removed and cells were washed twice with media. Live cells in the chambered glasses were examined under inverted transmitted light microscopy (Nikon Eclipse Ti microscope) with a 40× objective and color camera. As a control experiment, fixed cells were also microscopically examined after incubation with the compounds. Cells were seeded on the chambered cover glasses at the density of 1.5 × 10^4 cells cm^−2 (RAW264.7 macrophages) or 2.5 × 10^4 cells cm^−2 (MDCK epithelial cells). After an overnight incubation (37 °C, 5% CO2), media was removed from the wells and cold methanol (−20 °C) was added to each well. After 30 s, remaining methanol was removed by washing with media with 5% FBS. Fixed cells were incubated (37 °C, 5% CO2) with clofazmine or derivatives (300 μL of 5 × 10^−6 M; 2.5 × 10^−6 M for I) in media with 5% FBS. After 72 h, fixed RAW264.7 or MDCK cells were washed with media and examined using the same transmitted microscopy conditions as the live cells.

RAW264.7 macrophages [4] = test: XTT colorimetric cytotoxicity assay; format: cell-based; settings: Mus musculus, RAW 264.7 macrophages, 72 h incubation, read-out: IC50 (cell viability, XTT)
Method: Cytotoxicity Measurements: A 3′‐bis(4‐methoxy‐6‐nitro)benzene‐sulfonic acid hydrate (XTT) colorimetric assay was performed to assess the cytotoxicity of the clofazmine derivatives in RAW264.7 macrophages or MDCK epithelial cells using a Cell Proliferation Kit II (Roche Chemicals, Indianapolis, IN). […] The absorbance value in each well was measured at 495 nm against a reference wavelength at 650 nm using a microplate reader (Synergy 2, BioTek Instruments, Winooski, VT). […] The IC50 value for each compound was calculated from the concentration‐response curve generated by a nonlinear regression (curve fit) method in GraphPad Prism version 5.0 (GraphPad Software, Inc., San Diego, CA). The concentration of clofazimine or its chemical derivatives used for further in vitro cell studies was determined based on cell viability (%) assay results (see the next section).

RAW264.7 macrophages [5] = test: Cell associated mass measurements (bioaccumulation, pmole/cell); format: cell-based; settings: 72 h incubation, normalized by number of cells
Method: Cell Associated Mass Measurements: […] After an overnight incubation (37 °C, 5% CO2), cells were incubated with 100 μL of the media (DMEM with 5% FBS) containing 5 × 10^−6 M clofazmine or its chemical derivatives (2.5 × 10^−6 M of Compound “I”). Media containing each compound was replaced every day during the 72 h incubation. After the incubation, media was removed and cells were washed with Hank's balanced salt solution (HBSS) buffer (No. 14025; Invitrogen) twice. RAW264.7 macrophage cells in buffer were scraped and MDCK epithelial cells were exposed to Trypsin‐EDTA solution for detachment from the plates for cell number counting and quantification of cell‐associated masses. After centrifugation (650 × g), supernatant was removed and cell pellets were resuspended in 0.1 M citric acid/0.1 M trisodium citrate buffer (pH 5) for cell counting as previously reported.7 Equal numbers of cells in 100 μL in buffer were transferred to 96 well plates and 100 μL of detergent (ATCC, 30‐1010K) was added into wells for cell lysis. Chemical absorbance from each well was measured by the UV–vis microplate reader (Synergy 2, BioTek Instruments, Winooski, VT) at 490 nm wavelength and cell‐associated mass of each compound was calculated by a standard curve generated separately using the same media and presented as pmole/cell by normalizing the amount of chemical in each cell population sample by the number of cells in each sample.

RAW264.7 macrophages [6] = test: Linear diattenuation anisotropy microscopy (LC-PolScope) of intracellular inclusions; format: cell-based; settings: 72 h, compared with clofazimine
Method: (§2) The optical design was built on a Nikon Eclipse Ti microscope equipped with the liquid crystal universal compensator consisting of a linear polarizer and a pair of liquid crystal devices. The LC compensator was part of the transillumination path and was used to illuminate the specimen with monochromatic, linearly polarized light of varying polarization orientation. There was no polarization analyzer present in the imaging path. Quantitative intensity images were recorded by a charge‐coupled device camera and a desktop computer calculated the average transmittance, the differential transmittance and the polarization orientation leading to maximum transmittance for each optically resolved picture element (pixel). Acquisition and processing steps were controlled using OpenPolScope plugins for the open source imaging programs ImageJ and Micro‐Manager (MMStudio version 1.4.15). With the combination of hardware and software, polarized light images were acquired at high sensitivity and high spatial resolution for measuring linear diattenuation.
(§3) Linear Diattenuation Microscopy Data Acquisition and Analysis: After RAW264.7 macrophages or MDCK epithelial cells were incubated with the compound in the chambered cover glasses for 72 h, at the same time of performing transmitted microscopic examination, cell specimens were examined under linear diattenuation microscopy using the Nikon Eclipse Ti microscope with 40×/0.75 NA objective and monochromatic light of two different center wavelengths, 546 and 623 nm (passband 30 nm). In the OpenPolScope software, Pol‐Acquisition and Pol‐Analyzer plugins (version 2.0) were used to capture, process, and analyze the attenuation images. Before imaging the samples, the setup was calibrated using a specially prepared slide featuring four small pieces of linear polarization filters. The transmission axes of the filters were oriented in steps of 45° providing a means to calibrate the LC universal compensator settings. After the calibration, a sample slide was inserted and first a sequence of polarized light images of a clear, fully transmitting sample area was recorded, followed by an image sequence featuring the cells under investigation. The images of the clear area were used to determine instrument factors which were needed for computing the average and the polarization dependent loss in transmittance in cellular components visible in the second image.10
(§4) Linear diattenuation is a material property that can occur in materials such as crystals, in which the light absorbing molecules are arranged with a preferred orientation. The molecular alignment creates principal axes in the material denoting polarization directions for which light is maximally and minimally transmitted. Diattenuation is the difference between maximal (T max) and minimal (T min) transmittance, divided by their sum (Equation (1)): (1) Diattenuation=Tmax‐Tmin/Tmax+Tmin
(§5) To simultaneously measure the attenuation of many crystals with arbitrary orientations, we developed algorithms based on four specimen images, each recorded using light of a different polarization orientation: 0°, 45°, 90°, and 135°.10 The four raw images were used to calculate the average and differential transmittance and the orientation of maximum transmittance in every resolved image pixel. To isolate and analyze quantitative data of the objects (crystals), the anisotropy or maximum transmittance axis orientation image file opened in ImageJ was inverted (Ctrl + Shift + I) and thresholded using ImageJ's default automatic method (“Binary” → “Convert to Mask”). By using the ImageJ's algorithm, “Analyze Particles,” data of anisotropy or maximum transmittance axis orientation of objects in images could be obtained automatically. Diattenuation ratios were calculated by dividing anisotropy at 623 nm by that at 546 nm.

MDCK epithelial cells [7] = test: as above; format: cell-based, Canine; settings: 72 h, compared with clofazimine
Method: as §2, §3, §4, §5

| SMILES | Intracellular localization of compound (fluorescence, TRITC channel) (RAW264.7 macrophages [1]) | Intracellular localization of compound (fluorescence, TRITC channel) (MDCK epithelial cells [2]) | Inferred uptake (RAW264.7 macrophages [3]) | Observed cellular staining pattern (Notes) (RAW264.7 macrophages [3]) | Staining in fixed cells (RAW264.7 macrophages [3]) | Cellular staining relative to clofazimine (RAW264.7 macrophages [3]) | pIC50 (RAW264.7 macrophages [4]) | Accumulation in macrophages (RAW264.7 macrophages [5]) | Diattenuation anisotropy of intracellular inclusions (RAW264.7 macrophages [6]) | Diattenuation anisotropy of intracellular inclusions (MDCK epithelial cells [7]) |
| --- | --- | --- | --- | --- | --- | --- | --- | --- | --- | --- |
| CC(CN=c1cc2n(-c3ccc(Cl)cc3)c3ccccc3nc-2cc1Nc1ccc(Cl)cc1)c1ccccc1 (centres unmarked) [Compound T] | localized at the periphery of the cell nuclei | localized at the periphery of the cell nuclei | Moderate | Faint orange perinuclear vesicles are present in live cells | Staining not observed in fixed cells |  |  |  |  |  |
| OCCN=c1cc2n(-c3ccc(Cl)cc3)c3ccccc3nc-2cc1Nc1ccc(Cl)cc1 [I] |  |  | Excellent | Dark brown, crystal-like inclusions present in live cells | absent in fixed cells | comparable in morphology and intensity to those of clofazimine | 5.40 |  |  |  |
| CC(C)[C@H](CO)N=c1cc2n(-c3ccc(Cl)cc3)c3ccccc3nc-2cc1Nc1ccc(Cl)cc1 [W] |  |  | Good | Brown crystal-like inclusions are shown in live cells | absent in fixed cells | prominent cellular staining |  | greatest accumulation | even higher anisotropy | only in macrophages |
